Test results published in patent publication US6008372A, “Substituted dinaphthylmethyl and diheteroarylmethylacetyl histidine inhibitors of protein farnesyltransferase” (Warner-Lambert Company, priority 1998, dated 1999).
Counter-ions that a name gives are not always drawn. Like-named read-outs stand apart in the source and are kept apart here.

Experiments:
[1] = biological target: T1, rat brain farnesyl protein transferase (Rattus norvegicus, UniProt Q02293+Q04631); assay: Protein:farnesyltransferase (PFT/FPT) inhibitory activity assay; format: biochemical
T1 construct: 40-fold purified rat brain farnesyl protein transferase; from tissue; host or cells: rat brain

[2] = system: Ras farnesylation in H-ras-NIH3T3 cells; assay: Gel shift assay: inhibition of Ras farnesylation in H-ras-NIH3T3 cells; format: cell-based; conditions: 18-hour incubation, read-out: Inhibition of Ras Farnesylation (Minimum Effective Dose)
Protocol: Twenty-four hours after planting 2×10^6 ras-transformed cells per treatment condition, the farnesylation inhibitor is added at varying concentrations. Following an 18-hour incubation period, cells are lysed in phosphate-buffered saline containing 1% Triton X-100, 0.5% sodium deoxycholate, and 0.1% SDS, pH 7.4 in the presence of several protease inhibitors (PMSF, antipain, leupeptin, pepstatin A, and aprotinin all at 1 μg/mL). Ras protein is immunoprecipitated from the supernatants by the addition of 3 μg v-H-ras Ab-2 (Y13-259 antibody from Oncogene Science). After overnight immunoprecipitation, 30 μL of a 50% protein G-Sepharose slurry (Pharmacia) is added followed by 45-minute incubation. Pellets are resuspended in 2× tris-glycine loading buffer (Novex) containing 5% B-mercaptoethanol and then denatured by 5 minutes boiling prior to electrophoresis on 14% Tris-glycine SDS gels. Using Western transfer techniques, proteins are transferred to nitrocellulose membranes followed by blocking in blocking buffer. Upon overnight incubation with primary antibody (pan-ras Ab-2 from Oncogene Science), an antimouse HRP conjugate secondary antibody (Amersham) is employed for detection of the ras protein. Blots are developed using ECL techniques (Amersham).
The data in Table 1 show farnesyl protein transferase inhibitory activity, and activity in the gel shift assay against ras protein of selected compounds of Formula I.

[3] = Hepes (without 5 mM phosphate), read-out: Farnesyl Protein Transferase Inhibition, Hepes, IC50
[4] = Hepes/5 mM PO4^-3, pH 7.4, read-out: Farnesyl Protein Transferase Inhibition, Hepes/5 mM PO4^-3, IC50

IC50 [1, 3] [nM] | IC50 [1, 4] [nM] | SMILES | minimal effective concentration [2] [µM]
400 | 200 | C=CCOC(=O)[C@H](Cc1c[nH]cn1)NC(=O)C(Cc1cccc2ccccc12)Cc1cccc2ccccc12 [Example 15, (S)-3-(1H-Imidazol-4-yl)-2-(3-naphthalen-1-yl-2-naphthalen-1-ylmethyl-propionylamino)-propionic acid, allyl ester] | 25
80 | 70 | N#CCCOC(=O)[C@H](Cc1c[nH]cn1)NC(=O)C(Cc1cccc2ccccc12)Cc1cccc2ccccc12 [Example 17, (S)-3-(1H-Imidazol-4-yl)-2-(3-naphthalen-1-yl-2-naphthalen-1-ylmethyl-propionylamino)-propionic acid, 2-cyanoethyl ester] | 10
970 | 710 | N#CCCNC(=O)[C@H](Cc1c[nH]cn1)NC(=O)C(Cc1cccc2ccccc12)Cc1cccc2ccccc12 [Example 41, (S)-N-[1-(2-Cyano-ethylcarbamoyl)-2-(1H-imidazol-4-yl)-ethyl]-3-naphthalen-1-yl-2-naphthalen-1-ylmethyl-propionamide] | 5
1800 | 1300 | O=C(N[C@@H](Cc1c[nH]cn1)C(=O)OCCO)C(Cc1cccc2ccccc12)Cc1cccc2ccccc12 [Example 42, (S)-3-(1H-Imidazol-4-yl)-2-(3-naphthalen-1-yl-2-naphthalen-1-ylmethyl-propionylamino)-propionic acid, 2-hydroxy-ethyl ester, trifluoroacetate salt] | 
5600 | 3800 | CN(C)C(=O)[C@H](Cc1c[nH]cn1)NC(=O)C(Cc1cccc2ccccc12)Cc1cccc2ccccc12 [Example 43, (S)-N-[1-Dimethylcarbamoyl-2-(1H-imidazol-4-yl)-ethyl]-3-naphthalen-1-yl-2-naphthalen-1-ylmethyl-propionamide] | 
230 | 210 | C#CCCOC(=O)[C@H](Cc1c[nH]cn1)NC(=O)C(Cc1cccc2ccccc12)Cc1cccc2ccccc12 [Example 44, (S)-3-(1H-Imidazol-4-yl)-2-(3-naphthalen-1-yl-2-naphthalen-1-ylmethyl-propionylamino)-propionic acid, but-3-ynyl ester, trifluoroacetate salt] | 
490 | 320 | N#CCCOC(=O)[C@H](Cc1c[nH]cn1)NC(=O)C(CC1CCCC2CCCCC21)CC1CCCC2CCCCC21 (stereo partly drawn) [Example 45, (S)-2-[3-(Decahydro-naphthalen-1-yl)-2-(decahydro-naphthalen-1-ylmethyl)-propionylamino]-3-(1H-imidazol-4-yl)-propionic acid, 2-cyano-ethyl ester] | 
4900 | 5600 | CCCNC(=O)[C@H](Cc1c[nH]cn1)NC(=O)C(Cc1cccc2ccccc12)Cc1cccc2ccccc12 [Example 46] | 
1100 | 1400 | O=C(N[C@@H](Cc1c[nH]cn1)C(=O)OCCn1ccnc1)C(Cc1cccc2ccccc12)Cc1cccc2ccccc12 [Example 47, (S)-3-[1H-Imidazol-4-yl)-2-(3-naphthalen-1-yl-2-naphthalen-1-ylmethyl-propionylamino)-propionic acid, 2-imidazol-1-yl-ethyl ester] | 
1200 | 1300 | C=CCCOC(=O)[C@H](Cc1c[nH]cn1)NC(=O)C(Cc1cccc2ccccc12)Cc1cccc2ccccc12 [Example 48, (S)-3-(1H-Imidazol-4-yl)-2-(3-naphthalen-1-yl-2-naphthalen-1-ylmethyl-propionylamino)-propionic acid, but-3-enyl ester] | 
290 | 370 | N#CCCOC(=O)[C@H](Cc1c[nH]cn1)NC(=O)C(Cc1cccc2c1CCCC2)Cc1cccc2c1CCCC2 [Example 49, (S)-3-(1H-Imidazol-4-yl)-2-[3-(5,6,7,8-tetrahydro-naphthalen-1-yl)-2-(5,6,7,8-tetrahydro-naphthalen-1-ylmethyl)-propionylamino]-propionic acid, 2-cyano-ethyl ester] | 
4800 | 6000 | O=C(N[C@@H](Cc1c[nH]cn1)C(=O)NCCc1ccccc1)C(Cc1cccc2ccccc12)Cc1cccc2ccccc12 [Example 50] | 
2000 | 2200 | COC(=O)[C@H](Cc1c[nH]cn1)N(C)C(=O)C(Cc1cccc2ccccc12)Cc1cccc2ccccc12 [Example 51, (S)-3-(1H-Imidazol-4-yl-2-[methyl-(3-naphthalen-1-yl-2-naphthalen-1-ylmethyl-propionyl)-amino]-propionic acid, methyl ester, trifluoroacetate] | 5
3000 | 3400 | O=C(N[C@H](CO)Cc1c[nH]cn1)C(Cc1cccc2ccccc12)Cc1cccc2ccccc12 [Example 52, (S)-N-[1-Hydroxymethyl-2-(1H-imidazol-4-yl)-ethyl]-3-naphthalen-1-yl-2-naphthalen-1-ylmethyl-propionamide] | 25
70 | 60 | O=C(N[C@@H](Cc1c[nH]cn1)C(=O)OCCc1ccccc1)C(Cc1cccc2ccccc12)Cc1cccc2ccccc12 [Example 53, (S)-3-(1H-Imidazol-4-yl)-2-(3-naphthalen-1-yl-2-naphthalen-1-ylmethyl-propionylamino)-propionic acid, phenethyl ester] | 25
440 | 370 | N#CCCCOC(=O)[C@H](Cc1c[nH]cn1)NC(=O)C(Cc1cccc2ccccc12)Cc1cccc2ccccc12 [Example 54, (S)-3-(1H-Imidazol-4-yl)-2-(3-naphthalen-1-yl-2-naphthalen-1-ylmethyl-propionyiamino)-propionic acid, 3-cyano-propyl ester] | 
5300 | 4300 | CC(C)=CCOC(=O)[C@H](Cc1c[nH]cn1)NC(=O)C(Cc1cccc2ccccc12)Cc1cccc2ccccc12 [Example 55, (S)-3-(1H-Imidazol-4-yl)-2-(3-naphthalen-1-yl-2-naphthalen-1-ylmethyl-propionylamino)-propionic acid 3-methyl-but-2-enyl ester] | 
370 | 360 | COC(=O)[C@H](Cc1c[nH]cn1)NCC(Cc1cccc2ccccc12)Cc1cccc2ccccc12 [Example 56, (S)-3-(1H-Imidazol-4-yl)-2-(3-naphthalen-1-yl-2-naphthalen-1-ylmethyl-propylamino)-propionic acid methyl ester] | 
5500 | 4100 | COC(=O)COC(=O)[C@H](Cc1c[nH]cn1)NC(=O)C(Cc1cccc2ccccc12)Cc1cccc2ccccc12 [Example 57, (S)-3-(1H-Imidazol-4-yl)-2-(3-naphthalen-1-yl-2-naphthalen-1-ylmethyl-propionylamino)-propionic acid, methoxycarbonylmethyl ester] | 
400 | 510 | N#CCOC(=O)[C@H](Cc1c[nH]cn1)NC(=O)C(Cc1cccc2ccccc12)Cc1cccc2ccccc12 [Example 58, (S )-3-(1H-Imidazol-4-yl)-2-(3-naphthalen-1-yl-2-naphthalen-1-ylmethyl-propionylamino)-propionic acid, cyanomethyl ester] | 
1300 | 1000 | O=C(N[C@@H](Cc1c[nH]cn1)C(=O)OCCSSCCO)C(Cc1cccc2ccccc12)Cc1cccc2ccccc12 [Example 59, (S)-3-(1H-Imidazol-4-yl)-2-(3-naphthalen-1-yl-2-naphthalen-1-ylmethyl-propionylamino)-propionic acid, 2-(2-hydroxy-ethyldisulfanyl)-ethyl ester] | 
930 | 1000 | COCn1cncc1C[C@H](NC(=O)C(Cc1cccc2ccccc12)Cc1cccc2ccccc12)C(=O)OC [Example 60, (S)-3-(3-Methoxymethyl-3H-imidazol-4-yl)-2-(3-naphthalen-1-yl-2-naphthalen-1-ylmethyl-propionylamino)-propionic acid, methyl ester] | 
550 | 500 | OC[C@H](Cc1c[nH]cn1)NCC(Cc1cccc2ccccc12)Cc1cccc2ccccc12 [Example 62, (S)-3-(1H-Imidazol-4-yl)-2-(3-naphthalen-1-yl-2-naphthalen-1-ylmethyl-propylamino)-propan-1-ol] | 
200 | 240 | CNC(=O)[C@H](Cc1c[nH]cn1)NCC(Cc1cccc2ccccc12)Cc1cccc2ccccc12 [Example 63, (S)-3-(1H-Imidazol-4-yl)-N-methyl-2-(3-naphthalen-1-yl-2-naphthalen-1-ylmethyl-propylamino)-propionamide] | 
610 | 460 | CNC(=O)[C@H](Cc1cncn1C)NC(=O)C(Cc1cccc2ccccc12)Cc1cccc2ccccc12 [Example 64, (S)-N-[1-Methylcarbamoyl-2-(3-methyl-3H-imidazol-4-yl)-ethyl]-3-naphthalen-1-yl-2-naphthalen-1-ylmethyl-propionamide] | 
